Assay results: US20220226321A1, “INHIBITOR OF MNK FOR THE TREATMENT OF NEUROPATHIC PAIN” (Board of Regents, The University of Texas System, priority 2019, published 2022)
Entries after “also recorded” stand apart in the source; their conditions may differ.

Key:
infralimbic cortex = conditions: neuropathic mice (Shiers et al., 2018); cited from earlier work
SNI mice [1] = conditions: neuropathic mice (Shiers et al., 2018); cited from earlier work
cultured DRG neurons = test: Western blot of cultured DRG neurons treated with IFN-α, IFN-β, ISRIB or poly (I:C); type: cell-based, mouse; conditions: for AKT phosphorylation / ERK and eIF4E phosphorylation / downstream JAK/STAT signaling pathways / BiP expression or signaling via PKR and downstream p-eIF2α / PKR phosphorylation / mTOR or ribosomal protein S6 phosphorylation: 300 U/mL; for BiP expression or signaling via PKR and downstream p-eIF2α: 1-6 h; for PKR phosphorylation: long exposure (24 h); for mTOR or ribosomal protein S6 phosphorylation: time course of 6 h
Method: Primary cell culture of mouse DRG neurons and Western blot. Cultured primary DRG neurons were used to test the effects of IFN-α [(300 units (U)/mL] and IFN-β [(300 units (U)/mL] application. For these experiments, mice were anesthetized with isoflurane and killed by decapitation. Then DRGs, from all spinal levels, were dissected and placed in chilled Hanks balanced-salt solution (HBSS, Invitrogen) until processed. Dorsal root ganglia were digested in 1 mg/mL collagenase A (Roche, Mannheim, Germany) for 25 minutes at 37° C. then subsequently digested in a 1:1 mixture of 1 mg/mL collagenase D and papain (Roche) for 20 minutes at 37° C. After this step, dorsal root ganglia were then triturated in a 1:1 mixture of 1 mg/mL trypsin inhibitor (Roche) and bovine serum albumin (BioPharm Laboratories, Bluffdale, Utah), then filtered through a 70 μm cell strainer (Corning, N.Y.). Cells were pelleted then resuspended in DMEM/F12 with GlutaMAX (Thermo Fisher Scientific, MA) containing 10% fetal bovine serum (FBS; Thermo Fisher Scientific), 5 ng/mL NGF, 1% penicillin and streptomycin, and […] to inhibit mitosis of non-neuronal cells and were distributed evenly in a 6-well plate coated with poly-D-lysine (Becton Dickinson, NJ). DRG neurons were maintained in a 37° C. incubator containing 5% CO2 with a media change every other day. On day 6, DRG neurons were treated with either vehicle, IFN-α or IFN-β for 1, 3, 6 and 24 h. Following treatments, cells were rinsed with chilled 1×PBS buffer, harvested in 200 μL of RIPA lysis buffer (50 mM Tris, pH 7.4, 150 mM NaCl, 1 mM EDTA, pH 8.0, and 1% Triton X-100) containing protease and phosphatase inhibitors (Sigma-Aldrich), and then sonicated for 5 seconds. To clear debris, samples were centrifuged at 14,000 rpm for 15 min at 4° C. Ten to 15 μg of protein was loaded into each well and separated by a 10% SDS-PAGE gel. Proteins were transferred to a 0.45 PVDF membrane (Millipore, MA) at 30 V overnight at 4° C. Subsequently, membranes were blocked with 5% non-fat dry milk in 1× Tris buffer solution containing Tween 20 (TTBS) for at least 2 h. Membranes were washed 3 times for 10 minutes each (3×10) in 1×TTBS, then incubated with primary antibodies overnight at 4° C. The following day, membranes were washed 3×10 each then incubated with the corresponding secondary antibodies at room temperature for 1 h. After incubation, membranes were washed with 1×TTBS 3×10 each. Signals were detected using Immobilon Western Chemiluminescent HRP Substrate (Millipore) and then visualized with Bio-Rad ChemiDoc Touch. Membranes were stripped using Restore Western Blot Stripping buffer (Thermo Fisher Scientific) and reprobed with another antibody. Analysis was performed using Image lab 6.0.1 software for Mac (Bio-Rad, Hercules, Calif.).

SNI mice [2] = test: conditioned place preference (CPP) after SNI; type: in vivo, mouse; conditions: 10 μg i.t.
Method: Conditioned Place Preference. A previously published CPP protocol from the Walters laboratory protocol was used (Yang et al., 2014). The CPP box consisted of one black and one white chamber connected by a striped chamber. CPP was conducted in a dark room with a single low lumens light source (Maia 69E120-WH). The middle chamber of the CPP box was brightly illuminated to discourage mice from spending time in the middle chamber. […] On day 1 of testing (preconditioning), each mouse was permitted to explore the middle and black (but not white) chambers for 30 minutes. […] On the last day of CPP, each mouse was placed in the middle chamber with unrestricted access to all chambers and video-recorded for 10 min. Data are presented as the percent change in time spent in the drug-paired chambered compared to the control (vehicle or sham for each genotype or surgery). This was calculated by dividing each animal's time spent in the white box by the control average, multiplying by 100 and then subtracting 100.
(§1) Surgery. Spared nerve injury (SNI) was performed by the ligation and cutting of the tibial and peroneal branches of the left sciatic nerve trifurcation, leaving the sural branch intact as previously described (Decosterd and Woolf, 2000). Sham surgeries were performed the same way but without cutting the nerve. Mice were allowed to recover for 2 weeks following surgery.

SNI mice [3] = test: mechanical withdrawal threshold (von Frey) after SNI; type: in vivo, mouse; conditions: WT and 4EKI, 10 μg i.t., 2 hours after injection on each CPP conditioning day
Method: as §1
Mechanical withdrawal threshold. Tactile sensitivity was measured by probing the left outer surface of the left hindpaw with a series of calibrated von Frey filaments. Mechanical withdrawal thresholds were assessed in all animals before (baseline) and after (2 weeks) surgery to confirm neuropathy. Withdrawal thresholds were calculated using the up-down method (Chaplan et al., 1994).

paclitaxel-treated mice = test: mechanical paw withdrawal threshold (von Frey) in paclitaxel-induced CIPN; type: in vivo, mouse; conditions: intrathecal 10 μg, paclitaxel-induced pain
DRG neurons [4] = test: whole-cell patch clamp of cultured DRG neurons treated with IL-6 and eFT508; type: cell-based, mouse
Method: Phosphorylation of the 5′ cap-binding protein eIF4E by MAPK interacting kinases MNK1/2 is important for nociceptor sensitization and the development of chronic pain. IL-6 induced DRG nociceptor excitability is attenuated in mice lacking eIF4E phosphorylation, in MNK1/2^−/− mice and by the nonselective MNK1/2 inhibitor cercosporamide. […] Dorsal root ganglion (DRG) neurons were cultured from male and female ICR mice, 4-7 weeks old. […] Whole-cell patch clamp recordings were done on small diameter neurons (20-30 pF) to measure membrane excitability in response to ramp depolarization. […] These findings are consistent with a model wherein MNK-eIF4E signaling controls the translation of signaling factors that regulate T-type VGCCs in response to IL-6 treatment.

[5] = tested on: cultured mouse DRG neurons; test: microelectrode array (MEA) recordings of cultured DRG neurons exposed to IL-6; type: cell-based; conditions: IL-6 100 ng/ml, tomivosertib 25 nM co-treatment
Method: Extracellular electrophysiology. Substrate-integrated microelectrode array (MEA) recordings were performed using PDL and laminin pre-treated 12-well MEA plates (Axion Biosystems, USA) and an Axion Maestro recording system. DRG sensory neurons were dissected, dissociated, and seeded as previously described (Moy et al., 2017). […] Cultures were maintained at 37° C., 5% CO2, and ≥90% humidity throughout the recordings. Briefly, 30 min baseline recordings were carried out following a 30 min acclimation period. […] Recordings were then collected continuously for 3 hours. […] Online and offline MEA data analysis was performed using Axion's AxIS, NeuralMetrics Tools, and NeuroExplorer (NeuroExplorer, USA). Physiologically relevant extracellular action potentials were defined as previously described^29.

mice [6] = test: mechanical paw withdrawal threshold (von Frey) after type I IFN or poly (I:C); type: in vivo, mouse; conditions: i.pl. 300 U/25 μL; for hind paw mechanical hypersensitivity: female mice; for mechanical hypersensitivity to von Frey filament stimulation: male mice
Method: (§2) Behavior. Mice were housed on 12-hour light/dark cycles with food and water available ad libitum. Mice were randomized to groups from multiple cages to avoid using mice from experimental groups that were cohabitating. Sample size was estimated by performing a power calculation using G*Power (version 3.1.9.2). With 80% power and an expectation of d=2.2 effect size in behavioral experiments, and a set to 0.05, the sample size required was calculated as n=6 per group. The inventors therefore sought to have at least n=6 sample in all behavioral experiments. SD (set at 0.3) for the power calculation was based on previously published mechanical threshold data from the inventors' lab (Moy et al., 2017). Animals were habituated for 1 hour to clear acrylic behavioral chambers before beginning the experiment. For intraplantar injections, drugs were injected in a total volume of 25 μL through a 30-gauge needle. For intraperitoneal injections, drugs were administered in a volume of 100 μL Mechanical paw withdrawal thresholds in mice were measured using the up-down method (Chaplan et al., 1994) with calibrated von Frey filaments (Stoelting Company, WoodDale, Ill.). Thermal latency was measured using a Hargreaves device (IITC Life Science) (Hargreaves et al., 1988) with heated glass settings of 29° C., 40% active laser power, and 20 sec cutoff were used. The experimenter was blinded to the genotype of the mice and the drug condition in all experiments.

eIF4E = test: immunocytochemistry of p-eIF4E in cultured DRG neurons; type: cell-based, mouse; conditions: 300 U/mL, one-hour stimulation
Method: Immunofluorescence. For primary neuronal cultures, DRG neurons were harvested and cultured for 6 days according to the protocol described above with the exception that cells were distributed evenly on poly-D-lysine-coated 8-well chamber slide with removable wells (cat #12-565-8, Fisher Scientific). After treatments, cells were fixed in ice-cold 10% formalin in 1×PBS for 1 h and processed for immunocytochemistry (ICC). Cells were washed with 1×PBS and permeabilized in 1×PBS containing 10% heat-inactivated normal goat serum (NGS; Atlanta Biologicals, Atlanta, Ga.) and 0.02% Triton X-100 (Sigma) in 1×PBS for 30 min and then blocked in 10% NGS in 1×PBS for 2 h. […] Images were taken using an Olympus FluoView 1200 confocal microscope and analyzed with FIJI for Mac OS X. Images shown are representative of samples taken from 3 separate wells and presented as projections of Z stacks. Using ImageJ, the corrected total cell fluorescence (CTCF) was calculated to determine the intensity of the signal between experimental groups. To do so, the integrated density and the area, as well as the background noise was measured and the CTCF calculated as equal to: the integrated density −(area of selected cell×mean fluorescence of background readings). CTCF values from all experimental treatment groups were normalized to vehicle groups and expressed as normalized CTCF.

mice [7] = test: thermal latency (Hargreaves) after type I IFN or poly (I:C); type: in vivo, mouse; conditions: i.pl. 300 U/25 μL; for thermal hypersensitivity: female mice; for paw withdrawal latency to thermal stimulation: male mice
Method: as §2

DRG neurons [8] = test: patch-clamp electrophysiology of DRG neurons exposed to IFN-α; conditions: 300 U/mL, ~1 h

What does the source list for `CN(C)C(=N)N=C(N)N` [metformin]?
AIS shrinkage in the IL (infralimbic cortex): attenuated; cognitive deficits (SNI mice [1]): attenuated

What does the source list for `O=C(COc1ccc(Cl)cc1)NC1CCC(NC(=O)COc2ccc(Cl)cc2)CC1` (centres unmarked) [ISRIB]?
PKR phosphorylation after 24 h IFN-α (300 U/mL) in the presence of ISRIB (cultured DRG neurons; ISRIB 200 nM): no changes; components of the signaling pathways activated after IFN-α or IFN-β application (cultured DRG neurons; ISRIB 200 nM): did not modulate

What does the source list for `Clc1cccc(Cl)c1N=C1NCCN1` [clonidine]?
time spent in the drug-paired chamber vs 4EKI sham (SNI mice [2]; 4EKI SNI mice): no significant difference; more time in the clonidine-paired chamber vs WT sham (SNI mice [2]; WT SNI female mice): ~30%; mechanical hypersensitivity (SNI mice [3]): significantly attenuated mechanical hypersensitivity

For `COc1ccc(-c2ccc3c(N4CCOC[C@@H]4C)nc(N4CCOC[C@@H]4C)nc3n2)cc1CO` [AZD8055], which “mechanical allodynia / hypersensitivity after first injection” value (paclitaxel-treated mice) is on record?
Its value is “robust reduction in mechanical hypersensitivity; also recorded: relieves mechanical allodynia”.

What about the “mechanical allodynia / hypersensitivity after second (subsequent) injection” value (paclitaxel-treated mice) of the same molecule?
The value was “the magnitude of this effect was decreased; also recorded: no significant effects were observed”.

With “IL-6: interleukin-6, a cytokine that evokes pain” as the molecule, how does the “amplitudes of T-type voltage-gated calcium channels (VGCCs)” value (DRG neurons [4]; IL-6, eFT508 co-treatment) read?
Its value is “increased”.

And the “latency to the first action potential in the ramp protocol” value (DRG neurons [4]; IL-6, eFT508 pretreatment)?
The value was “lower”.

And the “action potential firing in response to ramp depolarization” value (DRG neurons [4]; one hr IL-6, eFT508 pretreatment followed by IL-6)?
The value was “increased action potential firing”.

What about the spontaneous firing [5] of the same molecule?
The spontaneous firing was “enhanced spontaneous firing”.

For IFN-α, which “hind paw mechanical hypersensitivity” value (mice [6]) is on record?
The value was “increased hind paw mechanical hypersensitivity”.

And the “mechanical hypersensitivity to von Frey filament stimulation” value (mice [6])?
The value was “rapid mechanical hypersensitivity”.

And the AKT phosphorylation (cultured DRG neurons)?
Its AKT phosphorylation is “stimulated AKT phosphorylation”.

And the “ERK and eIF4E phosphorylation” value (cultured DRG neurons)?
Its value is “increase”.

And the “downstream JAK/STAT signaling pathways” value (cultured DRG neurons)?
Its value is “rapidly activated”.

And the “BiP expression or signaling via PKR and downstream p-eIF2α” value (cultured DRG neurons)?
The value was “did not modify”.

What about the PKR phosphorylation (cultured DRG neurons) of the same molecule?
Its PKR phosphorylation is “did not modify”.

And the “mTOR or ribosomal protein S6 phosphorylation” value (cultured DRG neurons)?
Its value is “did not observe any changes”.

What about the “phosphorylation of eIF4E (ICC)” value (eIF4E) of the same molecule?
The value was “stimulated phosphorylation of eIF4E”.

What about the thermal hypersensitivity (mice [7]) of the same molecule?
Its thermal hypersensitivity is “no significant changes”.

And the “paw withdrawal latency to thermal stimulation” value (mice [7])?
The value was “no significant changes”.

And the “excitability, number of action potentials elicited by ramp current injections” value (DRG neurons [8])?
Its value is “elevated excitability”.

What about the “latency to the first spike following ramp current injection” value (DRG neurons [8]) of the same molecule?
Its value is “shortened the latency”.

What about the “resting membrane potential (RMP)” value (DRG neurons [8]) of the same molecule?
Its value is -47.5±2.5 mV.

B1: IFN-β: Recombinant mouse IFN-β protein (protein, UniProt P01575 22-182, looked up)
Interferon beta: INYKQLQLQERTNIRKCQELLEQLNGKINLTYRADFKIPMEMTEKMQKSYTAFAIQEMLQNVFLVFRNNFSSTGWNETIVVRLLDELHQQTVFLKTVLEEKQEERLTWEMSSTALHLKSYYWRVQRYLKLMKYNSYAWMVVRAEIFRNFLIIRRLTRNFQN
Which results are given for B1?
hind paw mechanical hypersensitivity (mice [6]): increased hind paw mechanical hypersensitivity; mechanical hypersensitivity to von Frey filament stimulation (mice [6]): rapid mechanical hypersensitivity; AKT phosphorylation (cultured DRG neurons): stimulated AKT phosphorylation; ERK and eIF4E phosphorylation (cultured DRG neurons): increase; downstream JAK/STAT signaling pathways (cultured DRG neurons): rapidly activated; BiP expression or signaling via PKR and downstream p-eIF2α (cultured DRG neurons): did not modify; PKR phosphorylation (cultured DRG neurons): did not modify; mTOR or ribosomal protein S6 phosphorylation (cultured DRG neurons): did not observe any changes; phosphorylation of eIF4E (ICC) (eIF4E): stimulated phosphorylation of eIF4E; thermal hypersensitivity (mice [7]): no significant changes; paw withdrawal latency to thermal stimulation (mice [7]): no significant changes
